target: T1, human DGAT1 enzyme (Homo sapiens, UniProt O75907); experiment: in vitro DGAT1 inhibition assay (microsomes, [14C]-palmitoyl-CoA, scintillation proximity); format: biochemical; conditions: human DGAT1 expressed in Sf9 insect cell microsomes; 2 hours at room temperature; read-out: hDGAT IC50
T1 construct: made in house; host or cells: Sf9 insect cells (microsomes)
T1 sequence (O75907 1-488): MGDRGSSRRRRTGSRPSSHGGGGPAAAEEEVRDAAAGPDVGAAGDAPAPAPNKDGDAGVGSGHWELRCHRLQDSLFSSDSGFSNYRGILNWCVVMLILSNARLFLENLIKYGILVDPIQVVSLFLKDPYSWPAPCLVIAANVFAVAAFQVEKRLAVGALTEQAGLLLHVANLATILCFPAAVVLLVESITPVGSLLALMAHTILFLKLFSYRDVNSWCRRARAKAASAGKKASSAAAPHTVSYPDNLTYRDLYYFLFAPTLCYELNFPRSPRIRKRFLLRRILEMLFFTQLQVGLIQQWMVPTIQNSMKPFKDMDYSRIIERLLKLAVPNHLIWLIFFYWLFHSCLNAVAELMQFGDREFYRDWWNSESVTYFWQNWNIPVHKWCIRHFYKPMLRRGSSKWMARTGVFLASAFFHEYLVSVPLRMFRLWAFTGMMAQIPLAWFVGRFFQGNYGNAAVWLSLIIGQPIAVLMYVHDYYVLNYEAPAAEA
Protocol: A useful assay to determine the DGAT inhibitory activity of the inventive compounds is described below:
The in vitro assay to identify DGAT1 inhibitors uses human DGAT1 enzyme expressed in Sf9 insect cells prepared as microsomes. The reaction is initiated by the addition of the combined substrates 1,2-dioleoyl-sn-glycerol and [^14C]-palmitoyl-CoA and incubated with test compounds and microsomal membranes for 2 hours at room temperature. The assay is stopped by adding 0.5 mg wheat germ agglutinin beads in assay buffer with 1% Brij-35 and 1% 3-cholamidopropyldimethyl-ammonio-1-propane sulfonate. Plates are sealed with TopSeal and incubated for 18 hours to allow the radioactive triglyceride product to come into proximity with the bead. Plates are read on a TopCount instrument.
Percent inhibition was calculated as the percent of (test compound inhibition minus non-specific binding) relative to (total binding minus non-specific binding). IC50 values were determined by curve fitting the data to a Sigmoidal dose-response in GraphPad Prism utilizing the following equation:
Y=A+(B−A)/(1+10̂((Log IC50−X))),
where A and B are the bottom and top of the curve (highest and lowest inhibition), respectively, and X is the logarithm of concentration.

`O=C(Nc1ccc(N2CCN(C(=O)Nc3ccccc3F)CC2)nc1)c1oc(N2CCc3ccccc3C2)nc1C(F)(F)F` [Compound 335, 2-(3,4-dihydroisoquinolin-2(1H)-yl)-N-(6-(4-(2-fluorophenylcarbamoyl)-piperazin-1-yl)pyridin-3-yl)-4-(trifluoromethyl)oxazole-5-carboxamide] and `O=C(Nc1ccc(N2CCN(C(=O)Nc3ccccc3F)CC2)nc1)c1oc(N2CCCCCC2)nc1C(F)(F)F` [Compound 334, 2-(azepan-1-yl)-N-(6-(4-(2-fluorophenylcarbamoyl)piperazin-1-yl)pyridin-3-yl)-4-(trifluoromethyl)oxazole-5-carboxamide] fall in the same range of IC50: 11 to 100 nM for the first, 11 to 100 nM for the second.

`CC1CCCN(c2nc(C(F)(F)F)c(C(=O)Nc3ccc(-c4ccc(C(=O)N5CCC(C(=O)O)CC5)cn4)cc3)o2)C1` (centres unmarked) [Compound 251, 1-(6-(4-(2-(3-methylpiperidin-1-yl)-4-(trifluoromethyl)oxazole-5-carboxamido)phenyl)nicotinoyl)piperidine-4-carboxylic acid] and `CC1CCCN(c2nc(C(F)(F)F)c(C(=O)Nc3ccc(-c4ccc(C(=O)O)nc4)cc3)o2)C1` (centres unmarked) [Compound 229, 5-(4-(2-(3-methylpiperidin-1-yl)-4-(trifluoromethyl)oxazole-5-carboxamido)phenyl)picolinic acid] fall in the same range of IC50: 101 to 500 nM for the first, 101 to 500 nM for the second.

Work on `C[C@@H]1CN(c2ccc(NC(=O)c3oc(N4CCC(c5ccccc5)CC4)nc3C(F)(F)F)cn2)CCN1C(=O)Nc1ccccc1F` [Compound 266] yielded an IC50 of 11 to 100 nM.

— US20110224136A1, “INHIBITORS OF DIACYLGLYCEROL ACYLTRANSFERASE” (priority 2008, published 2011)
